Results from patent EP4603105A1, “PHARMACEUTICAL COMPOSITION CONTAINING CYCLIC COMPOUND HAVING SELECTIVE KRAS INHIBITORY EFFECT AGAINST HRAS AND NRAS” (CHUGAI SEIYAKU KABUSHIKI KAISHA, priority 2022, dated 2024).
*1 amine or outer side, *2 acyl side, *3 side chain or, on linkers, in order; H or OH if unused. Where a SMILES comes first, the peptide text is derived from it. Bridges are numbered along the chain shown (N, C = ends). [ ]: non-standard residue; d: D form. The star is where a group is joined. hPhe(3,5-F2-4-CF3) = N[C@@H](CCc1cc(F)c(C(F)(F)F)c(F)c1)C(=O)O; hPhe(3-Cl-4-CF3) = N[C@@H](CCc1ccc(C(F)(F)F)c(Cl)c1)C(=O)O; NPrPhe(4-CF3) = CCCN[C@@H](Cc1ccc(C(F)(F)F)cc1)C(=O)O; NMeAbu(4,4,4-F3) = CN[C@@H](CC(F)(F)F)C(=O)O; X16 = O=C([C@@H](N[*:1])C1CC(F)(F)C1)[*:2]; NMeGly(cPent) = CN[C@H](C(=O)O)C1CCCC1; Ac4c(3,3-F2) = NC1(C(=O)O)CC(F)(F)C1; αMeCha = C[C@](N)(CC1CCCCC1)C(=O)O; X3 = CCC[C@](C)(N[*:1])C(=O)[*:2]; αMeI = CC[C@H](C)[C@](C)(N)C(=O)O; Gly(N-propargyl) = C#CCNCC(=O)O; NMeD = CN[C@@H](CC(=O)O)C(=O)O; Ac4c(3-oxa) = NC1(C(=O)O)COC1; NMeL = CN[C@@H](CC(C)C)C(=O)O; X20 = O=C(CN(CCF)[*:1])[*:2]; Iva = CC[C@](C)(N)C(=O)O; Morpholide = C1CN(*)CCO1; NAllylGly = C=CCNCC(=O)O; Ac5c = NC1(C(=O)O)CCCC1; Sar = CNCC(=O)O

Experiments:
[1] = molecular target: GDP-bound NRAS wild-type protein (Homo sapiens, UniProt P01111); assay: Binding to NRAS by surface plasmon resonance (SPR), KD and KD ratio to KRAS
Chain of GDP-bound NRAS wild-type protein (P01111 whole entry): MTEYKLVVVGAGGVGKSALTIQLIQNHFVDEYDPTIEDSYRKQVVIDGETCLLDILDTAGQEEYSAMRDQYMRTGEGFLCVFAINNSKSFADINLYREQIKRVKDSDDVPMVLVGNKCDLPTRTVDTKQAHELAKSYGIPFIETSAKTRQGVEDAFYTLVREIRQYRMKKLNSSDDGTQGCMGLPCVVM
In short: (§1)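 Compound binding is evaluated by SPR single-cycle kinetics, with concentrations added intermittently from low to high for 75 s each. Target surfaces carry GDP-loaded biotinylated Avi-RAS at about 100–300 RU, regenerated after each cycle; temperature 30°C. A 1:1 binding model gives KD.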

[2] = molecular target: HRAS wild-type protein (Homo sapiens, UniProt P01112); assay: Binding to HRAS by surface plasmon resonance (SPR), KD and KD ratio to KRAS
Chain of HRAS wild-type protein (P01112 whole entry): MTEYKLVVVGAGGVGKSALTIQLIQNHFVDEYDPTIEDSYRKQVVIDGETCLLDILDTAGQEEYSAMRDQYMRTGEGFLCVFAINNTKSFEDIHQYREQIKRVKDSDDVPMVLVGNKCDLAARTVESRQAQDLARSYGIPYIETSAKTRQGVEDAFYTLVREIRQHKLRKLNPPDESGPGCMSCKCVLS
In short: as §1

[3] = system: human lung cancer strain NCI-H441; type: cell-based
In short: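 Proliferation was scored by […] measured after the reagent was added to cultures kept at 37°C in 5% carbon dioxide.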

[4] = ratio of the KD value with respect to GDP-bound NRAS wild-type protein to the KD value with respect to KRAS
[5] = ratio of the KD value with respect to HRAS wild-type protein to the KD value with respect to KRAS
[6] = ratio of KD for GDP-bound NRAS wild-type protein to KD for KRAS
[7] = ratio of KD for HRAS wild-type protein to KD for KRAS

| IC50 [3] [nM] | Structure (SMILES) | NRAS /KRAS [1, 4] | HRAS /KRAS [2, 5] | NRAS /KRAS [1, 6] | HRAS /KRAS [2, 7] |
| --- | --- | --- | --- | --- | --- |
| 8.2 | CCCN1C(=O)CN(C)C(=O)CN(C)C(=O)[C@H]([C@@H](C)CC)NC(=O)[C@H](CC(C)C)N(C)C(=O)C[C@@H](C(=O)N2CCOCC2)N(C)C(=O)[C@H](C2CCCC2)N(C)C(=O)C2(CCCC2)NC(=O)[C@@H]2CCCN2C(=O)[C@H](CCc2cc(F)c(C(F)(F)F)c(F)c2)NC(=O)CN(C)C(=O)[C@@H]1Cc1ccc(C(F)(F)F)cc1 [PP0753] ([NMeL]I[Sar][Sar][NPrPhe(4-CF3)][Sar][hPhe(3,5-F2-4-CF3)]P[Ac5c][NMeGly(cPent)][NMeD]-Morpholide; lactam N-11) | B (a compound having 3 or more and less than 10 is denoted as B) | C (A compound having a KD ratio of 0.1 or more and less than 3 is denoted as C) |  |  |
| 40.4 | CCCN1C(=O)CN(C)C(=O)CN(C)C(=O)[C@H]([C@@H](C)CC)NC(=O)[C@H](CC(C)C)N(C)C(=O)C[C@@H](C(=O)N2CCOCC2)N(C)C(=O)[C@H](C2CCCC2)N(C)C(=O)[C@](C)(CC)NC(=O)[C@@H]2CCCN2C(=O)[C@H](CCc2cc(F)c(C(F)(F)F)c(F)c2)NC(=O)CN(C)C(=O)[C@@H]1Cc1ccc(C(F)(F)F)cc1 [PP0754] ([NMeL]I[Sar][Sar][NPrPhe(4-CF3)][Sar][hPhe(3,5-F2-4-CF3)]P[Iva][NMeGly(cPent)][NMeD]-Morpholide; lactam N-11) | B (a compound having 3 or more and less than 10 is denoted as B) | C (A compound having a KD ratio of 0.1 or more and less than 3 is denoted as C) |  |  |
| 480 | CCCN1C(=O)CN(C)C(=O)CN(C)C(=O)[C@H]([C@@H](C)CC)NC(=O)[C@H](CC(C)C)N(C)C(=O)C[C@@H](C(=O)N2CCOCC2)N(C)C(=O)[C@H](C2CCCC2)N(C)C(=O)[C@](C)([C@@H](C)CC)NC(=O)[C@@H]2CCCN2C(=O)[C@H](CCc2cc(F)c(C(F)(F)F)c(F)c2)NC(=O)CN(C)C(=O)[C@@H]1Cc1ccc(C(F)(F)F)cc1 [PP0757] ([NMeL]I[Sar][Sar][NPrPhe(4-CF3)][Sar][hPhe(3,5-F2-4-CF3)]P[αMeI][NMeGly(cPent)][NMeD]-Morpholide; lactam N-11) | B (a compound having 3 or more and less than 10 is denoted as B) | C (A compound having a KD ratio of 0.1 or more and less than 3 is denoted as C) |  |  |
| 153 | CCCN1C(=O)CN(C)C(=O)CN(C)C(=O)[C@H]([C@@H](C)CC)NC(=O)[C@H](CC(C)C)N(C)C(=O)C[C@@H](C(=O)N2CCOCC2)N(C)C(=O)[C@H](C2CCCC2)N(C)C(=O)[C@](C)(CCC)NC(=O)[C@@H]2CCCN2C(=O)[C@H](CCc2cc(F)c(C(F)(F)F)c(F)c2)NC(=O)CN(C)C(=O)[C@@H]1Cc1ccc(C(F)(F)F)cc1 [PP0758] ([NMeL]I[Sar][Sar][NPrPhe(4-CF3)][Sar][hPhe(3,5-F2-4-CF3)]P[X3][NMeGly(cPent)][NMeD]-Morpholide; lactam N-11) | B (a compound having 3 or more and less than 10 is denoted as B) | C (A compound having a KD ratio of 0.1 or more and less than 3 is denoted as C) |  |  |
| 123 | CCCN1C(=O)CN(C)C(=O)CN(C)C(=O)[C@H]([C@@H](C)CC)NC(=O)[C@H](CC(C)C)N(C)C(=O)C[C@@H](C(=O)N2CCOCC2)N(C)C(=O)[C@H](C2CCCC2)N(C)C(=O)C2(COC2)NC(=O)[C@@H]2CCCN2C(=O)[C@H](CCc2cc(F)c(C(F)(F)F)c(F)c2)NC(=O)CN(C)C(=O)[C@@H]1Cc1ccc(C(F)(F)F)cc1 [PP0765] ([NMeL]I[Sar][Sar][NPrPhe(4-CF3)][Sar][hPhe(3,5-F2-4-CF3)]P[Ac4c(3-oxa)][NMeGly(cPent)][NMeD]-Morpholide; lactam N-11) |  |  | B (a compound having 3 or more and less than 10 is denoted as B) | C (A compound having a KD ratio of 0.1 or more and less than 3 is denoted as C) |
| 8.7 | CCCN1C(=O)CN(C)C(=O)CN(C)C(=O)[C@H]([C@@H](C)CC)NC(=O)[C@H](CC(C)C)N(C)C(=O)C[C@@H](C(=O)N2CCOCC2)N(C)C(=O)[C@H](C2CCCC2)N(C)C(=O)C2(CC(F)(F)C2)NC(=O)[C@@H]2CCCN2C(=O)[C@H](CCc2cc(F)c(C(F)(F)F)c(F)c2)NC(=O)CN(C)C(=O)[C@@H]1Cc1ccc(C(F)(F)F)cc1 [PP0766] ([NMeL]I[Sar][Sar][NPrPhe(4-CF3)][Sar][hPhe(3,5-F2-4-CF3)]P[Ac4c(3,3-F2)][NMeGly(cPent)][NMeD]-Morpholide; lactam N-11) |  |  | B (a compound having 3 or more and less than 10 is denoted as B) | B (a compound having 3 or more and less than 10 is denoted as B) |

The remaining lines, values behind:

| Structure (SMILES) | IC50 [3] [nM] | NRAS /KRAS [1, 4] | HRAS /KRAS [2, 5] | NRAS /KRAS [1, 6] | HRAS /KRAS [2, 7] |
| --- | --- | --- | --- | --- | --- |
| CCCN1C(=O)CN(C)C(=O)CN(C)C(=O)[C@H](C2CC(F)(F)C2)NC(=O)[C@H](CC(C)C)N(C)C(=O)C[C@@H](C(=O)N(C)C)N(C)C(=O)[C@H](C2CCCC2)N(C)C(=O)C2(CCCC2)NC(=O)[C@@H]2CCCN2C(=O)[C@H](CCc2cc(F)c(C(F)(F)F)c(F)c2)NC(=O)CN(C)C(=O)[C@@H]1Cc1ccc(C(F)(F)F)cc1 [PP0748] ([NMeL][X16][Sar][Sar][NPrPhe(4-CF3)][Sar][hPhe(3,5-F2-4-CF3)]P[Ac5c][NMeGly(cPent)][NMeD]-NMe2; lactam N-11) | 10.7 | B (a compound having 3 or more and less than 10 is denoted as B) | B (a compound having 3 or more and less than 10 is denoted as B) |  |  |
| C=CCN1CC(=O)N(C)CC(=O)N(CCC)[C@@H](Cc2ccc(C(F)(F)F)cc2)C(=O)N(C)CC(=O)N[C@@H](CCc2ccc(C(F)(F)F)c(Cl)c2)C(=O)N2CCC[C@H]2C(=O)NC2(CCCC2)C(=O)N(C)[C@@H](C2CCCC2)C(=O)N(C)[C@H](C(=O)N2CCOCC2)CC(=O)N(C)[C@@H](CC(C)C)C(=O)N[C@@H]([C@@H](C)CC)C1=O [PP0749] ([NMeL]I[NAllylGly][Sar][NPrPhe(4-CF3)][Sar][hPhe(3-Cl-4-CF3)]P[Ac5c][NMeGly(cPent)][NMeD]-Morpholide; lactam N-11) | 19.8 | B (a compound having 3 or more and less than 10 is denoted as B) | C (A compound having a KD ratio of 0.1 or more and less than 3 is denoted as C) |  |  |
| C#CCN1CC(=O)N(C)CC(=O)N(CCC)[C@@H](Cc2ccc(C(F)(F)F)cc2)C(=O)N(C)CC(=O)N[C@@H](CCc2ccc(C(F)(F)F)c(Cl)c2)C(=O)N2CCC[C@H]2C(=O)NC2(CCCC2)C(=O)N(C)[C@@H](C2CCCC2)C(=O)N(C)[C@H](C(=O)N2CCOCC2)CC(=O)N(C)[C@@H](CC(C)C)C(=O)N[C@@H]([C@@H](C)CC)C1=O [PP0750] ([NMeL]I[Gly(N-propargyl)][Sar][NPrPhe(4-CF3)][Sar][hPhe(3-Cl-4-CF3)]P[Ac5c][NMeGly(cPent)][NMeD]-Morpholide; lactam N-11) | 11.1 | B (a compound having 3 or more and less than 10 is denoted as B) | C (A compound having a KD ratio of 0.1 or more and less than 3 is denoted as C) |  |  |
| CCCN1C(=O)CN(C)C(=O)CN(CCF)C(=O)[C@H]([C@@H](C)CC)NC(=O)[C@H](CC(C)C)N(C)C(=O)C[C@@H](C(=O)N2CCOCC2)N(C)C(=O)[C@H](C2CCCC2)N(C)C(=O)C2(CCCC2)NC(=O)[C@@H]2CCCN2C(=O)[C@H](CCc2ccc(C(F)(F)F)c(Cl)c2)NC(=O)CN(C)C(=O)[C@@H]1Cc1ccc(C(F)(F)F)cc1 [PP0751] ([NMeL]I[X20][Sar][NPrPhe(4-CF3)][Sar][hPhe(3-Cl-4-CF3)]P[Ac5c][NMeGly(cPent)][NMeD]-Morpholide; lactam N-11) | 25.5 | B (a compound having 3 or more and less than 10 is denoted as B) | C (A compound having a KD ratio of 0.1 or more and less than 3 is denoted as C) |  |  |
| CCCN1C(=O)CN(C)C(=O)CN(C)C(=O)[C@H]([C@@H](C)CC)NC(=O)[C@H](CC(C)C)N(C)C(=O)C[C@@H](C(=O)N2CCOCC2)N(C)C(=O)[C@H](C2CCCC2)N(C)C(=O)[C@](C)(CC2CCCCC2)NC(=O)[C@@H]2CCCN2C(=O)[C@H](CCc2cc(F)c(C(F)(F)F)c(F)c2)NC(=O)CN(C)C(=O)[C@@H]1Cc1ccc(C(F)(F)F)cc1 [PP0760] ([NMeL]I[Sar][Sar][NPrPhe(4-CF3)][Sar][hPhe(3,5-F2-4-CF3)]P[αMeCha][NMeGly(cPent)][NMeD]-Morpholide; lactam N-11) | 310 | B (a compound having 3 or more and less than 10 is denoted as B) | C (A compound having a KD ratio of 0.1 or more and less than 3 is denoted as C) |  |  |
| CCCN1C(=O)CN(C)C(=O)CN(C)C(=O)[C@H]([C@@H](C)CC)NC(=O)[C@H](CC(C)C)N(C)C(=O)C[C@@H](C(=O)N2CCOCC2)N(C)C(=O)[C@H](CC(F)(F)F)N(C)C(=O)C2(CCCC2)NC(=O)[C@@H]2CCCN2C(=O)[C@H](CCc2cc(F)c(C(F)(F)F)c(F)c2)NC(=O)CN(C)C(=O)[C@@H]1Cc1ccc(C(F)(F)F)cc1 [PP0767] ([NMeL]I[Sar][Sar][NPrPhe(4-CF3)][Sar][hPhe(3,5-F2-4-CF3)]P[Ac5c][NMeAbu(4,4,4-F3)][NMeD]-Morpholide; lactam N-11) | 158 |  |  | B (a compound having 3 or more and less than 10 is denoted as B) | C (A compound having a KD ratio of 0.1 or more and less than 3 is denoted as C) |
